The target in the assay is T1, human BRD4 bromodomain II (Homo sapiens, UniProt O60885).
T1 construct: human BRD4 bromodomain II [based on Genbank NM_058243, residues 349-460]; host or cells: E. coli
The assay is described as follows: Bromodomain binding assay (AlphaScreen), BRD4 BDII. The note with it: AlphaScreen assay, Table C2; read-out: BRD4 BDII IC50. The procedure:
Bromodomain Binding Assay
The bromodomain binding assay utilizes AlphaScreen technology. Compounds compete with a biotinylated peptide ligand (from histone H4: aa 1-21, K5/K8/K12/K16Ac-biotin) for binding to a hexahistidine (His6)-tagged bromodomain. Peptide binding is detected by fluorescence signal after singlet oxygen energy transfer from peptide-bound AlphaScreen streptavidin-coated donor beads to His6-tagged bromodomain-bound nickel-chelate acceptor beads (PerkinElmer). Briefly, 8 μL 2.5× bromodomain (E. coli expressed, N-terminal His6-tagged human BRD4 bromodomain II [based on Genbank NM_058243, residues 349-460] or N-terminal His6-tagged human BRD4 bromodomain I [residues 44-170]) in reaction buffer (50 mM HEPES [pH 7.5], 100 mM NaCl, 0.05% CHAPS, 0.1% BSA, 1% DMSO) is added to wells of an assay plate (384-well low flange white, flat bottom, polystyrene microplate, Corning #3572; buffer only is added to some wells as a negative control). A compound concentration series (10 concentrations, 3-fold serial dilutions previously prepared in 100% DMSO, or 100% DMSO only negative control) is delivered to the assay plate with an Echo 550 acoustic liquid handler (Labcyte), followed by plate centrifugation and incubation for 30 minutes at room temperature. Then 4 μL 5× biotinylated peptide ligand is added, followed by plate centrifugation and gentle shaking for 30 minutes at room temperature to mix. After this incubation, 4 μL 5× donor beads are added, and the plate is centrifuged, followed by brief gentle shaking to mix. Finally, 4 μL 5× acceptor beads are added, and the plate is centrifuged, followed by gentle shaking for 60 minutes at room temperature in the dark. AlphaScreen signal (excitation/emission: 680 nm/520-620 nm) is detected with an EnSpire multimode plate reader (PerkinElmer). Percentage peptide binding is plotted as a function of concentration, and curve fitting is used to determine competitive compound binding ICsos.

In general, IC50 refers to the concentration that gives 50% inhibition.

For the molecule `CC(=O)Nc1ccc(-c2cccc(-c3cc(N4CCNCC4)no3)c2O)cc1Oc1ccccc1` [Example 68, N-(2′-Hydroxy-3-phenoxy-3′-(3-(piperazin-1-yl)isoxazol-5-yl)-[1,1′-biphenyl]-4-yl)acetamide 2,2,2-trifluoroacetate], the IC50 fell in the range of 10 to 100 nM. Regarding `CC(=O)Nc1ccc(-c2cccc(-c3ccc(NC(C)=O)c(C#N)c3)c2O)cc1F` [Example 49, N,N′-(3-Cyano-3″-fluoro-2′-hydroxy-[1,1′:3′,1″-terphenyl]-4,4″-diyl)diacetamide], the IC50 lay in the range of 10 to 100 nM. Take `CC(=O)Nc1ccc(-c2cccc(-c3cc(N4CCN(S(C)(=O)=O)CC4)no3)c2O)cc1` [Example 143, N-(2′-hydroxy-3′-(3-(4-(methylsulfonyl)piperazin-1-yl)isoxazol-5-yl)-[1,1′-biphenyl]-4-yl)acetamide]: the IC50 is above 100 nM. Then `CC(=O)Nc1ccc(-c2cccc(-c3cc(N4CCN(C(C)=O)CC4)no3)c2O)cc1` [Example 57, N-(3′-(3-(4-Acetylpiperazin-1-yl)isoxazol-5-yl)-2′-hydroxy-[1,1′-biphenyl]-4-yl)acetamide], with above 100 nM. As for `O=C1CCCN1c1ccc(-c2cccc(-c3ccncc3)c2O)cc1F` [Example 190, 1-(3-fluoro-2′-hydroxy-3′-(pyridin-4-yl)-[1,1′-biphenyl]-4-yl)pyrrolidin-2-one], the IC50 was in the range of 10 to 100 nM. `CCc1cc(-c2cccc(-c3ccc(NC(C)=O)c(F)c3)c2O)ccc1NC(C)=O` [Example 88, N,N′-(3-Ethyl-3″-fluoro-2′-hydroxy-[1,1′:3′,1″-terphenyl]-4,4″-diyl)diacetamide]: the IC50 is above 100 nM. Take `CC(=O)Nc1ccc(-c2cccc(-c3cc(N4CCN(C(=O)c5ccccc5)CC4)no3)c2O)cc1` [Example 105, N-(3′-(3-(4-Benzoylpiperazin-1-yl)isoxazol-5-yl)-2′-hydroxy-[1,1′-biphenyl]-4-yl)acetamide]: the IC50 is above 100 nM.

For the molecule `CC(=O)Nc1ccc(-c2cccc(-c3cnc(-c4ccccc4)o3)c2O)cc1F` [Example 85, N-(3-Fluoro-2′-hydroxy-3′-(2-phenyloxazol-5-yl)-[1,1′-biphenyl]-4-yl)acetamide], the IC50 is above 100 nM. Take `CC(=O)Nc1ccc(-c2cccc(-c3cnn(-c4ccc(F)cc4)c3)c2O)cc1` [Example 16, N-(3′-(1-(4-Fluorophenyl)-1H-pyrazol-4-yl)-2′-hydroxy-[1,1′-biphenyl]-4-yl)acetamide]: the concentration for half-maximal inhibition (IC50) is above 100 nM. Consider `COc1ccc(C)c(-c2cccc(-c3ccc(NC(C)=O)c(F)c3)c2O)c1` [Example 147, N-(3-fluoro-2′-hydroxy-5″-methoxy-2″-methyl-[1,1′:3′,1″-terphenyl]-4-yl)acetamide], for which the IC50 is above 100 nM. On to `COc1ccc(-c2cccc(-c3ccc(NC(C)=O)c(F)c3)c2O)cc1` [Example 61, N-(3-Fluoro-2′-hydroxy-4″-methoxy-[1,1′:3′,1″-terphenyl]-4-yl)acetamide], for which the IC50 is above 100 nM. `COc1cc(-c2cccc(-c3ccc(N4CCCC4=O)c(F)c3)c2O)ccc1NC(C)=O` [Example 129, N-(3″-Fluoro-2′-hydroxy-3-methoxy-4″-(2-oxopyrrolidin-1-yl)-[1,1′:3′,1″-terphenyl]-4-yl)acetamide]: the IC50 was in the range of 10 to 100 nM. Then `CC(=O)Nc1ccc(-c2cccc(-c3ccc(NC(C)=O)cc3)c2O)cc1` [Example 11, N,N′-(2′-hydroxy-[1,1′:3′,1″-terphenyl]-4,4″-diyl)diacetamide], with above 100 nM. Then `CCOc1ccc(-c2cccc(-c3ccc(NC(C)=O)c(F)c3)c2O)cc1` [Example 71, N-(4″-ethoxy-3-fluoro-2′-hydroxy-[1,1′:3′,1″-terphenyl]-4-yl)acetamide], with above 100 nM; and `O=C1CCCN1c1ccc(-c2cc(F)cc(-c3ccnc(N4CCNCC4)c3)c2O)cc1F` [Example 216, 1-(3,5′-Difluoro-2′-hydroxy-3′-(2-(piperazin-1-yl)pyridin-4-yl)-[1,1′-biphenyl]-4-yl)pyrrolidin-2-one], with 1 to 10 nM. With `COc1cccc(-c2cccc(-c3ccc(NC(C)=O)c(F)c3)c2O)c1` [Example 56, N-(3-fluoro-2′-hydroxy-3″-methoxy-[1,1′:3′,1″-terphenyl]-4-yl)acetamide], the IC50 was above 100 nM. With `CC(=O)N1CCCc2cc(-c3cccc(-c4cc(N5CCNCC5)no4)c3O)ccc21` [Example 36, 1-(6-(2-Hydroxy-3-(3-(piperazin-1-yl)isoxazol-5-yl)phenyl)-3,4-dihydroquinolin-1(2H)-yl)ethanone 2,2,2-trifluoroacetate], the IC50 is above 100 nM. As to `CC(=O)Nc1ccc(-c2cccc(-c3cccc(N4CCNCC4=O)c3)c2O)cc1F` [Example 191, N-(3-fluoro-2′-hydroxy-3″-(2-oxopiperazin-1-yl)-[1,1′:3′,1″-terphenyl]-4-yl)acetamide], the IC50 was above 100 nM.

As to `COc1cc(-c2cccc(-c3cc(F)c(N4CCCC4=O)c(F)c3)c2O)ccc1NC(C)=O` [Example 133, N-(3″,5″-Difluoro-2′-hydroxy-3-methoxy-4″-(2-oxopyrrolidin-1-yl)-[1,1′:3′,1″-terphenyl]-4-yl)acetamide], the IC50 was 10 to 100 nM. Then `CC(=O)Nc1ccc(-c2cccc(-c3cccc(N4CCC(N)CC4)c3)c2O)cc1F` [Example 159, N-(3″-(4-aminopiperidin-1-yl)-3-fluoro-2′-hydroxy-[1,1′:3′,1″-terphenyl]-4-yl)acetamide 2,2,2-trifluoroacetate], with 10 to 100 nM; and `CC(=O)Nc1ccc(-c2cccc(-c3cc(N4CCNCC4)ccc3F)c2O)cc1F` [Example 187, N-(2″,3-difluoro-2′-hydroxy-5″-(piperazin-1-yl)-[1,1′:3′,1″-terphenyl]-4-yl)acetamide], with 10 to 100 nM. With `CC(=O)Nc1ccc(-c2cccc(-c3ccc4occc4c3)c2O)cc1F` [Example 119, N-(3′-(Benzofuran-5-yl)-3-fluoro-2′-hydroxy-[1,1′-biphenyl]-4-yl)acetamide], the IC50 is above 100 nM. Turning to `CCOc1cc(-c2cccc(-c3cc(N4CCNCC4)no3)c2O)ccc1NC(C)=O` [Example 19, N-(3-Ethoxy-2′-hydroxy-3′-(3-(piperazin-1-yl)isoxazol-5-yl)-[1,1′-biphenyl]-4-yl)acetamide 2,2,2-trifluoroacetate], the IC50 was above 100 nM. `CC(=O)Nc1ccc(-c2cccc(-c3cccc(N4CCC5(CCNC5)C4)c3)c2O)cc1F` (stereo not drawn) [Example 221, N-(3-fluoro-2′-hydroxy-3″-(2,7-diazaspiro[4.4]nonan-2-yl)-[1,1′:3′,1″-terphenyl]-4-yl)acetamide]: the 50% inhibitory concentration (IC50) lay in the range of 1 to 10 nM.

Turning to `CC(=O)Nc1ccc(-c2cccc(-c3ccc(OC4CCCC4)cc3)c2O)cc1F` [Example 118, N-(4″-(Cyclopentyloxy)-3-fluoro-2′-hydroxy-[1,1′:3′,1″-terphenyl]-4-yl)acetamide], the IC50 is above 100 nM. `O=C1CCCCN1c1ccc(-c2cccc(-c3cccc(N4CCNCC4)c3)c2O)cc1F` [Example 223, 1-(3-fluoro-2′-hydroxy-3″-(piperazin-1-yl)-[1,1′:3′,1″-terphenyl]-4-yl)piperidin-2-one]: the IC50 lay in the range of 10 to 100 nM. Consider `CC(=O)Nc1ccc(-c2cccc(-c3cc(N4CCNCC4)no3)c2O)cc1OC1CCCC1` [Example 89, N-(3-(Cyclopentyloxy)-2′-hydroxy-3′-(3-(piperazin-1-yl)isoxazol-5-yl)-[1,1′-biphenyl]-4-yl)acetamide 2,2,2-trifluoroacetate], for which the IC50 was 10 to 100 nM.
